The numbers were not newly measured in patent publication US9615750B2, “Methods and compositions for carrier agents and clearing agents used in optoacoustic imaging systems” (SENO MEDICAL INSTRUMENTS, INC., priority 2012, dated 2017), which cites them from elsewhere.

Where only a bound is given, the exact number is not on record here.

For the first data set the following is noted: in words, solvents as named.
Consider `CN1CCCN(C)C1=O` [Cyclic Urea], for which the Solubility result was “Soluble in water”.
Regarding Chondroitin Sulfate, the Solubility result is “Water Soluble”.
In the case of Heparin [reference compound], the Solubility result is “Water Soluble”.
With Keratan Sulfate, the Solubility entry is listed as “Water Soluble”.
With “Polyoxyethylene (20) sorbitan [TWEEN ® 20]”, the Solubility entry is “Insoluble in Mineral Oil”.

The same data set, now with this note: water.
As to `OCc1ccccc1` [Benzyl alcohol], the Solubility in water entry is “soluble 4 g/100 ml”.
`NC(N)=O` [Urea]: the Solubility in water is on record as more than 100 g/100 ml).
